# Assay results from publication PMC11475408, “All‐Inorganic Polyoxometalates Act as Superchaotropic Membrane Carriers” (Advanced Materials (Deerfield Beach, Fla.), 2023).
# What was measured:
# [1] = test system: methicillin-resistant Staphylococcus aureus (SR3605, ATCC43300); conditions: in combination with β-Lactamase; Mueller-Hinton broth, pH 7.4, 34 °C; ref [8]; cited from earlier work
# Excerpt: page 4: 2. Literature survey Table S1. Survey of experimentally proven membrane penetration of POMs according to a search in Scopus (“polyoxometalate” and “membrane penetration”) up to the submission date of the manuscript.
# [2] = Membrane disruption of liposomes by POM alone (CF fluorescence, DLS); type: biochemical
# Protocol: It should be noted that the addition of POMs alone (without cargo) retained the stability of the liposomes in the studied concentration range (up to 100 µM), that is, neither an increase in CF fluorescence nor changes in size distribution as obtained by dynamic light scattering experiments (DLS, see Figure S4, Supporting Information) were observed, which would have signaled membrane rupture. These negative controls allowed us to proceed to the carrier experiments, with added cargo.
# DLS experiments of the vesicles were carried out on a Malvern Instruments DTS Nano 2000 Zeta‐Sizer. A POM concentration of 100 µM was chosen as default, since this is the highest concentration at which membrane transport was evaluated. The cargo concentration was set to be same as in the transport experiments, namely 10 µM for heptaarginine, 1 µM for protamine, and 0.1 µM for polyarginine. Note that the POMs themselves, with a size of ≈1 nm, fall below the detection limit (>10 nm) of the DLS instrument.
# Figure S3. Transport activity, Y, for polyarginine (0.1 µM) in EYPC[…]CF liposomes as a function of the concentration of the different evaluated POMs. Solid lines correspond to the resulting fit with the Hill equation. Blue squares are data obtained at neutral pH, and red stars data obtained at acidic pH.
# Table S4. Membrane transport parametersa) of active POMs at neutralb) and acidicc) pH.
# HeptaArgd) Protaminee) PolyArgf) carrier pH Hydrolysis/Stability
# Ymax [%]g) EC50h) [µM] E i) Ymax [%] EC50 [µM] E Ymax [%] EC50 [µM] E […]
# Figure S5. Transport kinetics (left pannels), dose response curves (middle pannels) for cargo transport, and size distribution (by DLS, right pannels) for [PW12]3‒ (top) and [SiW12]4‒ (bottom), measured with EYPC[…]CF liposomes at pH 7.4, but preserving the POM solution at pH 1.2 before addition. As shown in panel a, the addition of [PW12]3‒ alone gave a fluorescence increase, pointing to membrane disruption, which was confirmed by DLS (panel c). […]
# CHO‐K1 cells = test: FITC-Arg8 uptake in live cells, confocal imaging; type: cell-based, Chinese hamster; conditions: carrier 5 µM, 5 min, then FITC-Arg8 5 µM, 30 min, 37 °C, four biological replicates
# Protocol: CHO‐K1 cells were plated into µ‐Slide 8‐well plates (ibidi) at a density of ≈1 × 10^5 cells per well (per 1 mL) and incubated for 24 h in Ham's F‐12 medium containing 10% v/v fetal bovine serum and 1.0% penicillin streptomycin at 37 °C in a 5% CO2 atmosphere. The cells were washed twice with Hank's buffer, incubated for 5 min at 37 °C in Ham's F‐12 medium without phenol red with carrier (5 µM), and subsequently in Ham's F‐12 medium without phenol red with 5 µM FITC‐Arg8 for 30 min at 37 °C. Cells in the absence of carrier were used as control. The cells were washed twice with Hank's buffer containing 100 µg mL^−1 heparin and then washed twice with Ham's F‐12 medium without phenol red. The nuclear staining was performed by incubating the cells with 10 µg mL^−1 Hoechst 33 342 (bis‐benzimide H33342 trihydrochloride) for 10 min at 37 °C. Cells were directly imaged as stated above.
# [3] = ref [11]; cited from earlier work
# Excerpt: Table 1 Stability of POMs in acidic and neutral pH and membrane transport parameters of different cargo molecules at pH 7.4 | column: Hydrolysis/stability / pH 5.5 ^e); Hydrolysis/stability / pH 7.5 ^f)
Substance,MIC [1] [µg/mL],"Membrane disruption with POM solution kept at pH 1.2 ([2]; POM alone added to liposomes, POM solution kept at pH 1.2, CF fluorescence)","Vesicle lysis at higher concentrations ([2]; higher than 100 µM POM, 10 mM Tris, 107 mM NaCl, pH 7.4)",FITC-Arg8 uptake promoted by carrier (CHO‐K1 cells),FITC-Arg8 uptake promoted by carrier (CHO‐K1 cells; listed as [PW12]3‒),Hydrolysis/stability pH 7.5 [3]
K4[α‐P^VV^VW^VI 11O40]·4H2O [[PVW11]^4‒],800,–,–,–,–,–
Na3[α‐P^VW^VI 12O40]·nH2O [[PW12]^3‒],–,strong interaction and membrane disruption,led to vesicle lysis,"some apparent cellular uptake, but the cell morphology was highly compromised",highly compromised,to [P^VW^VI 9O34]^9‒ ^j)
